From patent publication US9981972B2, “N-hydroxy bicyclic hydantoin carbamates as tools for identification of serine hydrolase targets” (ABIDE THERAPEUTICS, INC., priority 2014, dated 2018)
“Also recorded” adds a separate entry of the source.

Legend:
Type in all cases: biochemical
ABHD6 = molecular target: T1, ABHD6 (Mus musculus, UniProt Q8R2Y0); test: Gel-based competitive ABPP in vitro, mouse brain membrane proteome; conditions: for ABHD6 in vitro enzyme activity, % @ 20 μM: mouse brain (mem) proteome
T1 construct: from tissue; host or cells: mouse brain, membrane fraction
T1 sequence (Q8R2Y0 1-336): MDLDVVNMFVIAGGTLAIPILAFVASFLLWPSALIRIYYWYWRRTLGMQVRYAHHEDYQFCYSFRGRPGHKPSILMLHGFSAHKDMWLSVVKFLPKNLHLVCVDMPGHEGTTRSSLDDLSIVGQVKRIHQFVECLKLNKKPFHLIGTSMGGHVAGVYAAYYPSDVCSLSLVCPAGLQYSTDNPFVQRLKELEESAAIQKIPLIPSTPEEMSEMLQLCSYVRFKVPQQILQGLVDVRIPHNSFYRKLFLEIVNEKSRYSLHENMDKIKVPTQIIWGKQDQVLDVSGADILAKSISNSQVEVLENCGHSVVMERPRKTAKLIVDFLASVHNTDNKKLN
Procedure: (§1) Assay Overview: The purpose of this assay was to determine whether test compounds can inhibit LYPLA1 and LYPLA2 in a complex proteomic lysate and to assess anti-target inhibition using a competitive activity-based proteomic profiling (ABPP) assay. In this assay, a complex proteome endogenously expressing LYPLA1/2 was incubated with test compound followed by reaction with a rhodamine-conjugated fluorophosphonate (FP-Rh) serine-hydrolase specific activity-based probe. The reaction products were separated by SDS-PAGE and visualized in-gel using a flatbed fluorescence scanner. The percentage activity remaining was determined by measuring the integrated optical density of the bands. […] Percent inhibition was calculated relative to a DMSO (no compound) control.
(§2) Protocol Summary: Mouse brain membrane proteome (50 μL reaction volume, 1 mg/mL in DPBS) was treated with 0.1-100 μM test compound (1 μL of a 50× stock in DMSO) for 30 minutes at 37° C. FP-Rh (1 μL of 50× stock in DMSO, Thermo #88318) was added to a final concentration of 2 μM. The reactions were incubated for 30 minutes at 25° C., quenched with 16 μL 4×SDS-PAGE loading buffer (reducing), separated by SDS-PAGE and visualized by in-gel fluorescent scanning. The percentage activity remaining was determined by measuring the integrated optical density of the bands relative to a DMSO-only (no compound) control. Assay Cutoff: Compounds with ≥50% inhibition of targets at 1 μM test compound concentration were considered active.
Assay Overview: The purpose of this assay was to determine IC50 values of powder samples of test compounds for enzyme of interest activity, and anti-targets in a complex proteomic lysate using a gel-based competitive ABPP assay. In this assay, a complex proteome was incubated with test compound followed by reaction with FP-Rh and SDS-PAGE analysis as described above.
Protocol Summary: Soluble HeLa cell proteome (50 μL reaction volume, 1 mg/mL in DPBS) or mouse brain membrane proteome (50 μL reaction volume, 1 mg/mL in DPBS) was treated with varying concentrations of test compound (1 μL of a 50× stock in DMSO) for 30 minutes at 37° C. FP-Rh (1 μL of 50× stock in DMSO) was added to a final concentration of 2 μM. The reaction was incubated for 30 minutes at 25° C., quenched with 16 μL 4×SDS-PAGE loading buffer (reducing), separated by SDS-PAGE and visualized by in-gel fluorescent scanning. The percentage activity remaining was determined by measuring the integrated optical density of the enzymes of interest, and anti-target bands relative to a DMSO-only (no compound) control. IC50 values were determined from dose-response curves from three replicates at each inhibitor concentration: 1, 10, 100, 1000, 10000 nM and 0.01, 0.1, 1, 10, 100, 1000, 10000, 50000, and 100000 nM.

ABHD4 = molecular target: T2, ABHD4 (Homo sapiens, UniProt Q8TB40); test: Gel-based competitive ABPP, recombinant enzyme in transfected HEK293T cell lysates; design: myc-his; expressed in transfected cells; host or cells: HEK293T, transient transfection, pcDNA3.1/myc-his; lysate used in vitro; conditions: recombinant, combined HEK293T lysates, gel-based ABPP
T2 sequence (Q8TB40 1-342): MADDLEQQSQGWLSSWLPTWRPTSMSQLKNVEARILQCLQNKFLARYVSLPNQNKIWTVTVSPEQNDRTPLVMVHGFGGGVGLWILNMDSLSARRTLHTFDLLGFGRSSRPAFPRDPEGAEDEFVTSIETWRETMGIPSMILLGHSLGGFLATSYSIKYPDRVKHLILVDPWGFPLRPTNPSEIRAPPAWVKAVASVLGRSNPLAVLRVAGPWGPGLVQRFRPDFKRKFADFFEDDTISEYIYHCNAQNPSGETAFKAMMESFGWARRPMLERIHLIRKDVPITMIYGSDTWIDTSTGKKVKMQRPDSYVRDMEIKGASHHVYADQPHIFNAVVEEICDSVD
Procedure: HEK293T cells were seeded at 2×10^5 per well on 6 well plates and grown for 48 h. They were then transfected with mABHD3 (pCMV-Sport6), hABHD4 (pcDNA3.1/myc-his), hPPT1 (pCMV6-XL5), or hPPT1 S115A (pCMV6-XL5), by incubating 0.5 μg of DNA with 3 μL of PEI MAX (1 mg/mL, Polysciences, Inc) in serum-free DMEM for 30 min, then adding them to cells. After 48 h cells were either treated with compound in situ, as described above, or harvested for in vitro studies. The […] PPT1 mutation was introduced using QuikChange II Site Directed Mutagenesis Kit (Agilent) with the following primers: […]
Human ABHD3 and ABHD4 were recombinantly expressed by transient transfection in HEK293T cells, and the cell lysates were combined to provide a convenient assay for monitor inhibition of both enzymes by gel-based ABPP (see FIG. 8A). […]

[1] = test system: FP-sensitive SHs in the mouse brain membrane proteome; test: Gel-based competitive ABPP in vitro, mouse brain membrane proteome, anti-targets; conditions: for Anti-target(s) 0.1 μM: SHs with at least 50% inhibition at 0.1 μM compound; for Anti-target(s) 1 μM: SHs with at least 50% inhibition at 1 μM compound; for Anti-target(s) 10 μM: SHs with at least 50% inhibition at 10 μM compound; for Anti-target(s) 100 μM: SHs with at least 50% inhibition at 100 μM compound
Procedure: as §1, §2
(§3) N-Hydroxy bicyclic hydantoin carbamates (Compounds 1-20) listed in Table 1 were subjected to gel-based competitive ABPP screening to assess SH reactivity against more than 20 FP-sensitive SHs visible by 1D SDS-PAGE separation and fluorescent detection in the mouse brain proteome (see FIG. 1). […] Compound treatment ([…], 30 minutes) was followed by labeling with SH-specific ABPP probe FP-Rh (2 μM, 30 minutes), 1D-SDS-PAGE, and in-gel fluorescent visualization of FP-labeled proteins. Assignment of LYPLA1/2 bands was based on correlation of molecular weights, expression and inhibition profiles with LC-MS/MS data and recombinant enzyme expression. Proteins were listed as anti-targets if at least 50% inhibition was observed as quantified relative to the DMSO control.
(§4) Compounds 1-20 were subjected to gel-based competitive ABPP profiling to assess potency and selectivity against several dozen FP-sensitive SHs in the mouse brain membrane proteome, which endogenously expresses LYPLA1 and LYPLA2, as well a diversity of potential SH anti-targets. Compounds were tested at 100 μM, 10 μM, 1 μM, and/or 0.1 μM compound concentration.

LYPLA1 = molecular target: T3, LYPLA1 (Mus musculus, UniProt P97823); test: Gel-based competitive ABPP in vitro, mouse brain membrane proteome; conditions: for inhibition at 0.1 µM: 0.1 μM compound, read-out: LYPLA1 % INH 0.1 μM; for inhibition at 0.1 µM / inhibition at 1 µM / inhibition at 10 µM / inhibition at 100 µM: 30 min, one replicate; for inhibition at 1 µM: 1 μM compound, read-out: LYPLA1 % INH 1 μM; for inhibition at 10 µM: 10 μM compound, read-out: LYPLA1 % INH 10 μM; for inhibition at 100 µM: 100 μM compound, read-out: LYPLA1 % INH 100 μM; for LYPLA1 in vitro enzyme activity, % @ 20 μM: mouse brain (mem) proteome
T3 construct: a complex proteome endogenously expressing LYPLA1/2 was incubated with test compound; from tissue; host or cells: mouse brain, membrane fraction
T3 sequence (P97823 whole entry): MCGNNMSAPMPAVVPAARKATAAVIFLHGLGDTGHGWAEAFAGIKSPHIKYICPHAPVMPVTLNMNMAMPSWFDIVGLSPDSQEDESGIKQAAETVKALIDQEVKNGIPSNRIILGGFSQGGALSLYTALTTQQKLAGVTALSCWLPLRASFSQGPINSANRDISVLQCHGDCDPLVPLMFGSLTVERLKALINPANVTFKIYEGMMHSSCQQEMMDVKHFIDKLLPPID
Procedure: as §1, §2, §3, §4

LYPLA2 = molecular target: T4, LYPLA2 (Mus musculus, UniProt Q9WTL7); test: as above; conditions: for inhibition at 0.1 µM: 0.1 μM compound, read-out: LYPLA2 % INH 0.1 μM; for inhibition at 0.1 µM / inhibition at 1 µM / inhibition at 10 µM / inhibition at 100 µM: 30 min, one replicate; for inhibition at 1 µM: 1 μM compound, read-out: LYPLA2 % INH 1 μM; for inhibition at 10 µM: 10 μM compound, read-out: LYPLA2 % INH 10 μM; for inhibition at 100 µM: 100 μM compound, read-out: LYPLA2 % INH 100 μM; for LYPLA2 in vitro enzyme activity, % @ 20 μM: mouse brain (mem) proteome
T4 construct: a complex proteome endogenously expressing LYPLA1/2 was incubated with test compound; from tissue; host or cells: mouse brain, membrane fraction
T4 sequence (Q9WTL7 whole entry): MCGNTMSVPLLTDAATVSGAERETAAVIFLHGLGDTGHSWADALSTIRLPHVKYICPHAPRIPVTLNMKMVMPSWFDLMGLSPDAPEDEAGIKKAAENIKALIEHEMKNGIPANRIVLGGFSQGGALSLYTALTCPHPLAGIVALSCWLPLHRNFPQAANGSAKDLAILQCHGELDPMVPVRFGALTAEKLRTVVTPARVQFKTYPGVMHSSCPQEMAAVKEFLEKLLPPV
Procedure: as §1, §2, §3, §4

Compound | potency and selectivity for ABHD6, concentration-dependent profiling (ABHD6; mouse brain membrane SHs, FIG. 7B) | preference ABHD4 over ABHD3 (ABHD4) | Anti-target(s) 0.1 μM [1] | Anti-target(s) 1 μM [1] | Anti-target(s) 10 μM [1] | Anti-target(s) 100 μM [1] | inhibition at 0.1 µM (LYPLA1) | inhibition at 1 µM (LYPLA1) | inhibition at 10 µM (LYPLA1) | inhibition at 100 µM (LYPLA1) | inhibition at 0.1 µM (LYPLA2) | inhibition at 1 µM (LYPLA2) | inhibition at 10 µM (LYPLA2) | inhibition at 100 µM (LYPLA2) | LYPLA1 in vitro enzyme activity, % @ 20 μM (LYPLA1) | LYPLA2 in vitro enzyme activity, % @ 20 μM (LYPLA2) | ABHD6 in vitro enzyme activity, % @ 20 μM (ABHD6)
COc1ccc(N2CCN(C(=O)ON3C(=O)NC(C(C)C)C3=O)CC2)cc1 (centres unmarked) [MJN193, 4-isopropyl-2,5-dioxoimidazolidin-1-yl 4-(4-methoxyphenyl)piperazine-1-carboxylate] | good potency and selectivity | – | – | – | – | – | – | – | – | – | – | – | – | – | – | – | –
O=C(ON1C(=O)C2CN(Cc3ccc(Br)cc3)CCN2C1=O)N1CCC(CCc2ccc(Cl)cc2)CC1 (centres unmarked) [Compound 13, 7-(4-bromobenzyl)-1,3-dioxohexahydroimidazo[1,5-a]pyrazin-2(3H)-yl 4-(4-chlorophenethyl)piperidine-1-carboxylate] | – | preferentially inhibited ABHD4 over ABHD3 | ABHD6 | FAAH,; also recorded: ABHD4,; also recorded: ABHD6 | FAAH,; also recorded: ABHD4,; also recorded: ABHD6 | FAAH,; also recorded: ABHD4,; also recorded: MAGL,; also recorded: ABHD6 | 0% | 10% | 75% | 90% | 0% | 10% | 75% | 90% | – | – | –
COc1ccc(N2CCN(C(=O)ON3C(=O)C4CN(C)CCN4C3=O)CC2)cc1 (centres unmarked) [Compound 23, 7-methyl-1,3-dioxohexahydroimidazo[1,5-a]pyrazin-2(3H)-yl 4-(4-methoxyphenyl)piperazine-1-carboxylate] | – | – | – | – | – | – | – | – | – | – | – | – | – | – | 0% @ | 0% @ | 100% @
COc1ccc(N2CCN(C(=O)ON3C(=O)C4CN(C(=O)OC(C)(C)C)CCN4C3=O)CC2)cc1 (centres unmarked) [Compound 21, tert-butyl 2-((4-(4-methoxyphenyl)piperazine-1-carbonyl)oxy)-1,3-dioxohexahydroimidazo[1,5-a]pyrazine-7(1H)-carboxylate] | – | – | – | – | – | – | – | – | – | – | – | – | – | – | 0% @ | 0% @ | 100% @
O=C(ON1C(=O)C2CN(C(=O)c3ccc(F)c([N+](=O)[O-])c3)CCN2C1=O)N1CCC(CCc2ccc(Cl)cc2)CC1 (centres unmarked) [Compound 9, 7-(4-fluoro-3-nitrobenzoyl)-1,3-dioxohexahydroimidazo[1,5-a]pyrazin-2(3H)-yl 4-(4-chlorophenethyl)piperidine-1-carboxylate] | – | – | – | ABHD6 | FAAH,; also recorded: ABHD12,; also recorded: ABHD6 | FAAH,; also recorded: ABHD12,; also recorded: MAGL,; also recorded: ABHD6 | – | 90% | 100% | 100% | – | 90% | 100% | 100% | – | – | –
CC(C)(C)OC(=O)N1CCN2C(=O)N(OC(=O)N3CCOCC3Cc3ccccc3)C(=O)C2C1 (centres unmarked) [Compound 16, 7-(tert-butoxycarbonyl)-1,3-dioxohexahydroimidazo[1,5-a]pyrazin-2(3H)-yl 3-benzylmorpholine-4-carboxylate] | – | – | none | none | ABHD6 | ABHD6 | 0% | 0% | 0% | 0% | 0% | 0% | 0% | 0% | – | – | –
